Laboratory results reported in ChEMBL document CHEMBL5236598, “Lead Optimization and Avoidance of Metabolic-perturbing Motif Developing Novel Diarylpyrimidines as Potent HIV-1 NNRTIs” (J Med Chem, 2022).

Experiments:
[1] = Oral bioavailability in ICR mouse at 10 mg/kg measured for 12 hrs by LC-MS/MS analysis; format: ADME, organism-based; settings: in vivo
[2] = Aqueous solubility of compound at pH 7 at 0.1 to 10 mg; format: physicochemical; settings: aqueous medium, dose 0.1-10 mg
[3] = Acute toxicity in Kunming mouse assessed as change in body weight at 2000 mg/kg, po administered for 7 days; format: organism-based; settings: in vivo, 168 h, time 7 day
[4] = AUC (0 to infinity) in ICR mouse at 2 mg/kg, iv measured for 12 hrs by LC-MS/MS analysis; format: ADME, organism-based; set-up: dose 2 mg/kg, time 12 hrs, route iv; settings: in vivo
[5] = Subacute toxicity in Kunming mouse assessed as appearance of lesions in heart at 50 mg/kg/day, po administered for 2 weeks; format: organism-based; settings: in vivo, 336 h
[6] = Subacute toxicity in Kunming mouse assessed as abnormalities in lungs at 50 mg/kg/day, po administered for 2 weeks; format: organism-based; settings: in vivo, 336 h
[7] = Aqueous solubility of compound at pH 7.4 at 0.1 to 10 mg; format: physicochemical; settings: aqueous medium, dose 0.1-10 mg
[8] = Subacute toxicity in Kunming mouse assessed as clonic convulsion at 50 mg/kg/day, po administered for 2 weeks; format: organism-based; settings: in vivo, 336 h
[9] = Aqueous solubility of compound at pH 2 at 0.1 to 10 mg; format: physicochemical; settings: aqueous medium, dose 0.1-10 mg
[10] = Acute toxicity in Kunming mouse assessed as abnormal behaviour at 2000 mg/kg, po administered for 7 days; format: organism-based; settings: in vivo, 168 h, time 7 day
[11] = AUC (0 to t) in ICR mouse at 2 mg/kg, iv measured for 12 hrs by LC-MS/MS analysis; format: ADME, organism-based; set-up: dose 2 mg/kg, time 12 hrs, route iv; settings: in vivo
[12] = Subacute toxicity in Kunming mouse assessed as lethargy at 50 mg/kg/day, po administered for 2 weeks; format: organism-based; settings: in vivo, 336 h
[13] = Subacute toxicity in Kunming mouse assessed as anorexia at 50 mg/kg/day, po administered for 2 weeks; format: organism-based; settings: in vivo, 336 h
[14] = Subacute toxicity in Kunming mouse assessed as appearance of lesions in lungs at 50 mg/kg/day, po administered for 2 weeks; format: organism-based; settings: in vivo, 336 h
[15] = Subacute toxicity in Kunming mouse assessed as appearance of lesions in spleen at 50 mg/kg/day, po administered for 2 weeks; format: organism-based; settings: in vivo, 336 h
[16] = Clearance in ICR mouse at 2 mg/kg, iv measured for 12 hrs by LC-MS/MS analysis; format: ADME, organism-based; settings: in vivo
[17] = Metabolic stability in human liver microsomes assessed as parent compound remaining preincubated for 10 mins followed by NADPH regenerating system addition and measured after 60 mins by LC-MS/MS analysis; format: ADME, Microsome; settings: time 70 min, read-out: Stability
[18] = Cmax in ICR mouse at 10 mg/kg, po measured for 12 hrs by LC-MS/MS analysis; format: ADME, organism-based; set-up: time 12 hrs, dose 10 mg/kg, route po; settings: in vivo
[19] = Subacute toxicity in Kunming mouse assessed as abnormalities in kidneys at 50 mg/kg/day, po administered for 2 weeks; format: organism-based; settings: in vivo, 336 h
[20] = Tmax in ICR mouse at 10 mg/kg, po measured for 12 hrs by LC-MS/MS analysis; format: ADME, organism-based; settings: in vivo
[21] = Half life in ICR mouse at 10 mg/kg, po measured for 12 hrs by LC-MS/MS analysis; format: ADME, organism-based; settings: in vivo
[22] = Subacute toxicity in Kunming mouse assessed as appearance of lesions in kidneys at 50 mg/kg/day, po administered for 2 weeks; format: organism-based; settings: in vivo, 336 h
[23] = Subacute toxicity in Kunming mouse assessed as ruffled fur at 50 mg/kg/day, po administered for 2 weeks; format: organism-based; settings: in vivo, 336 h
[24] = Cmax in ICR mouse at 2 mg/kg, iv measured for 12 hrs by LC-MS/MS analysis; format: ADME, organism-based; set-up: time 12 hrs, dose 2 mg/kg, route iv; settings: in vivo
[25] = AUC (0 to infinity) in ICR mouse at 10 mg/kg, po measured for 12 hrs by LC-MS/MS analysis; format: ADME, organism-based; set-up: time 12 hrs, dose 10 mg/kg, route po; settings: in vivo
[26] = Metabolic stability in human liver microsomes assessed as half life preincubated for 10 mins followed by NADPH regenerating system addition and measured after 2 hrs by LC-MS/MS analysis; format: ADME, Microsome; settings: time 130 min
[27] = Subacute toxicity in Kunming mouse assessed as abnormalities in heart at 50 mg/kg/day, po administered for 2 weeks; format: organism-based; settings: in vivo, 336 h
[28] = Subacute toxicity in Kunming mouse assessed as abnormalities in liver at 50 mg/kg/day, po administered for 2 weeks; format: organism-based; settings: in vivo, 336 h
[29] = Subacute toxicity in Kunming mouse assessed as signs of toxicity at 50 mg/kg/day, po administered for 2 weeks; format: organism-based; settings: in vivo, 336 h
[30] = AUC (0 to t) in ICR mouse at 10 mg/kg, po measured for 12 hrs by LC-MS/MS analysis; format: ADME, organism-based; set-up: dose 10 mg/kg, time 12 hrs, route po; settings: in vivo
[31] = Half life in ICR mouse at 2 mg/kg, iv measured for 12 hrs by LC-MS/MS analysis; format: ADME, organism-based; settings: in vivo
[32] = Subacute toxicity in Kunming mouse assessed as abnormalities in spleen at 50 mg/kg/day, po administered for 2 weeks; format: organism-based; settings: in vivo, 336 h
[33] = Subacute toxicity in Kunming mouse assessed as appearance of lesions in liver at 50 mg/kg/day, po administered for 2 weeks; format: organism-based; settings: in vivo, 336 h
[34] = Metabolic stability in human liver microsomes assessed as intrinsic clearance preincubated for 10 mins followed by NADPH regenerating system addition and measured after 2 hrs by LC-MS/MS analysis; format: ADME, Microsome; settings: time 130 min, read-out: CLH
[35] = Tmax in ICR mouse at 2 mg/kg, iv measured for 12 hrs by LC-MS/MS analysis; format: ADME, organism-based; settings: in vivo
[36] = Selectivity index, ratio of CC50 for cytotoxicity against human MT4 cells to EC50 for antiviral activity against wild type HIV-1 IIIB infected in human MT4 cells; format: toxicity, cell-based; settings: read-out: Ratio CC50/EC50
[37] = Selectivity index, ratio of CC50 for cytotoxicity against human MT4 cells to EC50 for antiviral activity against HIV-1 RES056 harboring RT K103N/Y181C double mutant infected in human MT4 cells; format: toxicity, cell-based; settings: read-out: Ratio CC50/EC50
[38] = system: Human immunodeficiency virus 1; test: Antiviral activity against HIV-1 RES056 harboring RT K103N/Y181C double mutant infected in human MT4 cells assessed as protection against virus-induced cytopathic effect incubated for 5 days by MTT assay; format: functional, organism-based; settings: Human immunodeficiency virus 1, RES056, MT4, 120 h
[39] = Cytotoxicity against human MT4 cells assessed as reduction in cell viability measured after 5 days by MTT assay; format: toxicity, cell-based; settings: time 5 day
[40] = system: Human immunodeficiency virus 1; test: Antiviral activity against wild type HIV-1 IIIB infected in human MT4 cells assessed as protection against virus-induced cytopathic effect incubated for 5 days by MTT assay; format: functional, organism-based; settings: Human immunodeficiency virus 1, IIIB, MT4, 120 h

Cc1cc(/C=C/C#N)cc(C)c1Oc1nc(Nc2ccc(C#N)c(F)c2)nc2c1COC2.Cl
bioavailability [1]: 12.1% | solubility [2]: 149 µg/mL | Activity [3]: Non-Toxic | AUC [4]: 255 ng·h/mL | Activity [5]: Non-Toxic | Activity [6]: Non-Toxic | solubility [7]: 38.9 µg/mL | Activity [8]: Non-Toxic | solubility [9]: 349 µg/mL | Activity [10]: Non-Toxic | AUC(0-t) at 12 h [11]: 250 ng·h/mL | Activity [12]: Non-Toxic | Activity [13]: Non-Toxic | Activity [14]: Non-Toxic | Activity [15]: Non-Toxic | CL [16]: 1720 mL/min/kg | remaining at 1 h [17]: 5% | Cmax [18]: 37.5 ng/mL | Activity [19]: Non-Toxic | Tmax [20]: 15 min | half-life [21]: 307 min | Activity [22]: Non-Toxic | Activity [23]: Non-Toxic | Cmax [24]: 484 ng/mL | AUC(0-inf) [25]: 154 ng·h/mL | half-life [26]: 11.3 min | Activity [27]: Non-Toxic | Activity [28]: Non-Toxic | Activity [29]: Non-Toxic | AUC(0-t) at 12 h [30]: 107 ng·h/mL | half-life [31]: 85.8 min | Activity [32]: Non-Toxic | Activity [33]: Non-Toxic | microsomal CLint [34]: 87.6 µL/min/mg | Tmax [35]: 0 h

Cc1cc(C#N)cc(C)c1Oc1nc(NC2CCN(c3ccc(NS(N)(=O)=O)cc3F)CC2)nc2ccsc12
selectivity ratio [36]: 1080 | selectivity ratio [37]: 5 | EC50 [38]: 4.93 µM | CC50 at 120 h [39]: 24.7 µM | EC50 [40]: 0.0229 µM

C[C@]12CC[C@H]3[C@@H](CCC4=CC(=O)CC[C@@]43C)[C@@H]1CC[C@@H]2O [TESTOSTERONE]
half-life [26]: 11.1 min

Cc1cc(C#N)cc(C)c1Oc1nc(NC2CCN(c3c(F)cc([N+](=O)[O-])cc3F)CC2)nc2sccc12
selectivity ratio [36]: > 5170 | selectivity ratio [37]: < 1 | EC50 [38]: > 211 µM | CC50 at 120 h [39]: > 233 µM | EC50 [40]: 0.0451 µM

Cc1cc(-c2ccc(F)cc2)cc(C)c1Oc1nc(Nc2ccc(C#N)c(F)c2)nc2sccc12
selectivity ratio [36]: 50 | selectivity ratio [37]: 2.6 | EC50 [38]: 11.1 µM | CC50 at 120 h [39]: 28.9 µM | EC50 [40]: 0.583 µM

Cc1cc(/C=C/C#N)cc(C)c1Oc1nc(NC2CCN(c3ccc(N)cc3F)CC2)nc2sccc12
selectivity ratio [36]: 418 | selectivity ratio [37]: 13 | EC50 [38]: 1.06 µM | CC50 at 120 h [39]: 13.6 µM | EC50 [40]: 0.0325 µM

Cc1cc(-c2ccc(C#N)cc2)cc(C)c1Oc1nc(Nc2ccc(C#N)c(F)c2)nc2ccsc12
selectivity ratio [36]: 101 | selectivity ratio [37]: 11 | EC50 [38]: 6.35 µM | CC50 at 120 h [39]: 71.5 µM | EC50 [40]: 0.711 µM

Cc1cc(C#N)cc(C)c1Oc1nc(NC2CCN(c3ccc(NS(N)(=O)=O)cc3F)CC2)nc2sccc12
selectivity ratio [36]: 2720 | selectivity ratio [37]: 6 | EC50 [38]: 3.41 µM | CC50 at 120 h [39]: 21.5 µM | EC50 [40]: 0.0079 µM
